Where “and” joins values, the source holds several entries; their conditions need not be identical. Equal entries are not always repeated. Structures can show the parent of a compound that is named as a salt. Blank lines part the entries; values can stand above or below the compound they belong to.
Key:
soluble hCD73 = molecular target: T1, soluble hCD73 (Homo sapiens, UniProt P21589); assay: Inhibition of soluble hCD73; format: biochemical; conditions: for fold increase in potency (decrease in Ki) relative to compound 9: versus N^4-benzyloxy compound 9; for fold more potent than 22: versus compound 22
T1 sequence (P21589 27-549 limits assumed): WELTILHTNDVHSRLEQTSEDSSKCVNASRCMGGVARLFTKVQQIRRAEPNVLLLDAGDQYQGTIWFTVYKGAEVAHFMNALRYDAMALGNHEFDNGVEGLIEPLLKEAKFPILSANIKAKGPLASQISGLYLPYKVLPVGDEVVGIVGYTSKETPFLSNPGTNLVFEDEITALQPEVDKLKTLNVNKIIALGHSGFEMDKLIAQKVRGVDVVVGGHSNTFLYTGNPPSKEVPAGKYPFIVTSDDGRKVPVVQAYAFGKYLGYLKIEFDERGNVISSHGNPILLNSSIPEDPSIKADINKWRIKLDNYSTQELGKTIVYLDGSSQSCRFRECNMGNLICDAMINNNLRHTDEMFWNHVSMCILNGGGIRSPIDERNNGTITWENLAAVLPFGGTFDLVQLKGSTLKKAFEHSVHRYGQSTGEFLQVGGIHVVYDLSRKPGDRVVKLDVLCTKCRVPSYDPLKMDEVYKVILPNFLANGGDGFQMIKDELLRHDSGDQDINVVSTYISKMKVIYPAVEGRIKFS

[1] = 30 (6a); ref 9 (6b); cited from earlier work
rat soluble CD73 = conditions: read-out: Ki ± SEM; cited from earlier work
[2] = molecular target: T2, tonsillar CD73 (human palatine tonsil cryosections) (Homo sapiens, UniProt P21589); assay: In situ ecto-5′-nucleotidase; format: biochemical; conditions: 50–250 nM inhibitor; 100 μM AMP; tonsillar germinal centers
T2 sequence (P21589 27-574): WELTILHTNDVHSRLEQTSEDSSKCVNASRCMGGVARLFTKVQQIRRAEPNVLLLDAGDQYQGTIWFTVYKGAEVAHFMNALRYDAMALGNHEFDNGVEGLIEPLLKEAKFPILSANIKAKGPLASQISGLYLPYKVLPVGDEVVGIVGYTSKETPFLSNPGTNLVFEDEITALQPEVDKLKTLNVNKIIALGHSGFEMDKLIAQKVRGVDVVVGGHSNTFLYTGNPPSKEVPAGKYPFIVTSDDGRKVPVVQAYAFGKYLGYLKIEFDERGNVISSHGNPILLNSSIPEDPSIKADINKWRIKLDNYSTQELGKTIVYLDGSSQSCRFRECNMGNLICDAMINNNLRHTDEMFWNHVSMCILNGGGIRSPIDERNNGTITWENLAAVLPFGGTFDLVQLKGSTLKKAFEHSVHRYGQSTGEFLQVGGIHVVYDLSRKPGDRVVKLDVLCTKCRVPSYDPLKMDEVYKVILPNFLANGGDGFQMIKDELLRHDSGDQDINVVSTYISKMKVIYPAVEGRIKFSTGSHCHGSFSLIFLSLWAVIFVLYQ

σ1 receptor = σ1 receptor (Homo sapiens, UniProt Q99720); assay: Off-target binding, Psychoactive Drug Screening Program
Chain of σ1 receptor (Q99720 whole entry, species assumed): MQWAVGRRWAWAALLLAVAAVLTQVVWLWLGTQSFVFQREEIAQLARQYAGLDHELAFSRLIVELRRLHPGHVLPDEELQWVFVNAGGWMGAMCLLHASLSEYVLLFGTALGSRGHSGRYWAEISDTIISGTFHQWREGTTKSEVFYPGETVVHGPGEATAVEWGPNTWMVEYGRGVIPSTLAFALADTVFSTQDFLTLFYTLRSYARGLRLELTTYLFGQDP

Compound: CCN(CC)CC.CCN(CC)CC.Cn1c(=O)n([C@@H]2O[C@H](COP(=O)(O)CP(=O)(O)O)[C@@H](O)[C@H]2O)cc/c1=N/OCc1cccc(Cl)c1 [Compound 11, N^4-(3-Chlorobenzyloxy)-3-methylcytidine-5′-α,β-methylenediphosphonate Triethylammonium Salt]
- fold increase in potency (decrease in Ki) relative to compound 9 (soluble hCD73; soluble hCD73): 6–7 fold

Compound: C[C@H](Nc1cc(Cl)nc2c1cnn2[C@@H]1O[C@H](COP(=O)(O)CP(=O)(O)O)[C@@H](O)[C@H]1O)c1ccccc1F [Compound 6a, Quemliclustat]
- oral bioavailability [1]: display oral bioavailability

Compound: N^4-benzyloxy-3-methylcytidine-5′-α,β-methylene-diphosphonate [Compound 9]
- Ki (rat soluble CD73): 0.00367 µM

Compound: CCN(CC)CC.CCN(CC)CC.O=c1ccn([C@H]2[C@H](O)[C@H](O)[C@]3(COP(=O)(O)CP(=O)(O)O)C[C@H]23)c(=O)[nH]1 [Compound 28, {[({(2R,3S,4R,5S)-4-[2,4-Dioxo-3,4-dihydropyrimidin-1(2H)-yl]-2,3-dihydroxy-1λ^5-bicyclo[3.1.0]hexan-1-yl}methoxy)(hydroxy)phosphoryl]methyl}phosphonic Acid Triethylammonium Salt]
- inhibition at 50 µM (soluble hCD73): 28%
- % inhibition (soluble hCD73; soluble hCD73, between 0.03 nM and 50 μM): < 50%

Compound: COC[C@](CO)(OC[C@H]1O[C@@H](n2ncc3c(NC4CCCC4)nc(Cl)nc32)[C@H](O)[C@@H]1O)P(=O)(O)O [Compound 6b, OP-5244]
- oral bioavailability [1]: display oral bioavailability

Compound: CCN(CC)CC.CCN(CC)CC.Cn1c(=O)n([C@@H]2O[C@H](COP(=O)(O)CP(=O)(O)O)[C@@H](O)[C@H]2O)cc/c1=N/OCc1ccc(C(=O)NCCC(=O)O)cc1 [Compound 27, N^4-{4-[(2-Carboxyethyl)carbamoyl]benzyloxy}-3-methylcytidine-5′-α,β-methylenediphosphonate Triethylammonium Salt]
- fold more potent than 22 (soluble hCD73; soluble hCD73): 5 fold

Compound: Cn1c(=O)n([C@@H]2O[C@H](COP(=O)(O)CP(=O)(O)O)[C@@H](O)[C@H]2O)cc/c1=N/OCc1ccc(Cl)cc1 [Compound 16, N^4-(4-Chlorobenzyloxy)-3-methylcytidine-5′-α,β-methylenediphosphonate Triethylammonium Salt]
- Ki (σ1 receptor): 2.61 ± 0.64 µM

The next lines start with the values.

- fold increase in potency (decrease in Ki) relative to compound 9 (soluble hCD73; soluble hCD73): 6–7 fold
Compound: CCN(CC)CC.CCN(CC)CC.Cn1c(=O)n([C@@H]2O[C@H](COP(=O)(O)CP(=O)(O)O)[C@@H](O)[C@H]2O)cc/c1=N/OCc1ccccc1Cl [Compound 10, N^4-(2-Chlorobenzyloxy)-3-methylcytidine-5′-α,β-methylenediphosphonate Triethylammonium Salt]

- fold weaker inhibitor than ribose analogue 16 (soluble hCD73; soluble hCD73, versus compound 16): 88 fold and ~ 90 fold
Compound: CCN(CC)CC.CCN(CC)CC.Cn1c(=O)n([C@H]2[C@H](O)[C@H](O)[C@]3(COP(=O)(O)CP(=O)(O)O)C[C@H]23)cc/c1=N/OCc1ccc(Cl)cc1 [Compound 29, [({[(2R,3S,4R,5S)-4-(4-{[(4-Chlorobenzyl)oxy]imino}-3-methyl-2-oxo-3,4-dihydropyrimidin-1(2H)-yl)-2,3-dihydroxy-1λ^5-bicyclo[3.1.0]hexan-1-yl]methoxy}(hydroxy)phosphoryl)methyl]phosphonic Acid Triethylammonium Salt]

- fold more potent than 22 (soluble hCD73; soluble hCD73): 5 fold
Compound: CCN(CC)CC.CCN(CC)CC.CCOC(=O)CCNC(=O)c1ccc(CO/N=c2/ccn([C@@H]3O[C@H](COP(=O)(O)CP(=O)(O)O)[C@@H](O)[C@H]3O)c(=O)n2C)cc1 [Compound 26, N^4-{4-[(3-Ethoxy-3-oxopropyl)carbamoyl]benzyloxy}-3-methylcytidine-5′-α,β-methylenediphosphonate Triethylammonium Salt]

- effect on catalytic (AMPase) activity of tonsillar CD73 in situ [2]: decreased the catalytic activities
- fold increase in potency (decrease in Ki) relative to compound 9 (soluble hCD73; soluble hCD73): ~ 20 fold and 24 fold
Compound: CCN(CC)CC.CCN(CC)CC.Cn1c(=O)n([C@@H]2O[C@H](COP(=O)(O)CP(=O)(O)O)[C@@H](O)[C@H]2O)cc/c1=N/OCc1ccc(I)cc1 [Compound 18, N^4-(4-Iodobenzyloxy)-3-methylcytidine-5′-α,β-methylenediphosphonate Triethylammonium Salt]

- fold weaker than methyl ester 21 (soluble hCD73; soluble hCD73, versus compound 21): 2 fold
Compound: CCN(CC)CC.CCN(CC)CC.Cn1c(=O)n([C@@H]2O[C@H](COP(=O)(O)CP(=O)(O)O)[C@@H](O)[C@H]2O)cc/c1=N/OCc1ccc(C(N)=O)cc1 [Compound 23, N^4-[4-(Carbamoyl)benzyloxy]-3-methylcytidine-5′-α,β-methylenediphosphate Triethylammonium Salt]

- effect on catalytic (AMPase) activity of tonsillar CD73 in situ [2]: decreased the catalytic activities
Compound: CCN(CC)CC.CCN(CC)CC.Cn1c(=O)n([C@@H]2O[C@H](COP(=O)(O)CP(=O)(O)O)[C@@H](O)[C@H]2O)cc/c1=N/OCc1ccc(S(F)(F)(F)(F)F)cc1 [Compound 20, N^4-[4-(Pentafluorosulfanyl)benzyloxy]-3-methylcytidine-5′-α,β-methylenediphosphonate Triethylammonium Salt]
